System: prostaglandin synthetase of bovine seminal vesicles
Test: Inhibition of conversion of arachidonic acid into PGE2 and PGF2α by BSV prostaglandin synthetase, cascade bioassay
Assay type: biochemical
Method: The high molecular weight mammalian blood plasma or serum extract of the present invention was tested for PG synthesis-inhibiting properties by determining the ability of the extract to inhibit the conversion of arachidonic acid into PGE2 and PGF2α by PG synthetase present in BSV, in the presence of optimal amounts of the cofactor glutathione, (reduced form). Specifically, the inhibitory properties of the extract were determined by a cascade bioassay technique [Collier et al., Brit. J. Pharmac., 58, 193-199 (1976)] involving measurement of prostaglandin activity against response.
The ability of the purified mammalian serum extract to inhibit the enzymatic conversion of arachidonic acid by prostaglandin synthetase obtained from BSV was determined by bioassay on tissues which are known to be contracted by naturally occurring PGs. Segments of rat or hamster stomach fundus (stomach strip) were obtained as described in Brit. J. Pharmacol. Vol. 5, 173 (1950), Vol. 6, 32 (1953), Vol. 12, 344 (1957), and Vol. 23, 351 (1964). […]
A dose of standard PGE2 is put over the tissues by means of the roller pump and the tissue response measured by recording the tissue contraction. […] Alternately, the protein content of the solution can be determined by known techniques, such as the biuret reaction or Kjeldahl method, and the test value expressed in ng. […]

Inhibition of PG synthesis (in words): demonstrated an ability to inhibit
Substance: haptoglobin obtained from Cohn subfraction IV4 by the above procedure: haptoglobin from Cohn subfraction IV4 by second procedure: ethacridine lactate precipitation and chromatography

Source: US4129648A, “Method for reducing endogenous prostaglandin synthesis” (priority 1977, dated 1978)
